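Tested at 5 concentrations; 48 h exposure; 96-well plates; endpoints linearly interpolated, else capped at highest concentration. TGI marks complete inhibition of growth.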

Common to all, as to test: NCI tumour cell line growth inhibition, 48 h
The subject of test [1] is DMS 114 small cell lung.
The test system of test [2] is DMS 273 small cell lung.
For test [3], the system named is KM20L2 colon.
The subject of test [4] is LXFL 529 NSCLC.
Test [5] concerns M19-MEL melanoma.
In test [6] the test system is OVCAR-8 ovarian.
Test [7] deals with SNB-78 CNS.
The test system of test [8] is SR leukemia.
The subject of test [9] is XF 498 CNS.
Test [10] relates to CAKI-1 renal.
The test system of test [11] is DLD-1 colon.
Test [12] relates to HOP-18 NSCLC.
Test [13] deals with RXF-631 renal.
For test [14], the system named is PC-3 prostate.

Take `CC(C)(C)S(=O)OC12CC3CC(CC(C3)C1)C2` (stereo not drawn): the TGI in test [1], in [2], in test [3], in test [4], in test [5] and in [6] was above 100 µM throughout. Also, the TGI in [7], in test [8] and in test [9] was above 100 µM in each case.

As for `COc1ccc2c(c1)CCC(OS(=O)(=O)CC13CCC(CC1=O)C3(C)C)C2=O` (stereo not drawn), the TGI was above 100 µM in test [10]; above 100 µM in [11]; 73.3 µM in [1]; 58.4 µM in test [2]; 78.2 µM in test [12]; 37.8 µM in [3]. For the same compound, the TGI in [4] is above 100 µM; in test [5], above 100 µM; in test [6], 38.6 µM; in test [8], 73.3 µM; in test [9] it was 93.9 µM.

As for `Cc1ccc(NC(=O)C(=O)Cc2cc[n+]([O-])cc2)cc1`, the TGI in [10], in test [11], in [1], in test [2], in [12] and in test [3] was above 100 µM each time. Moreover, the TGI in test [4], in test [5], in [6], in test [7], in test [8] and in test [9] was above 100 µM throughout.

For the compound `C[N+](C)=c1nc(N2CCc3ccccc3C2)ss1`, the TGI in test [10], in test [11], in [1], in [2], in test [12] and in test [3] was above 100 µM throughout. In addition, the TGI in test [4], in test [5], in test [6], in test [13], in test [7] and in [8] was above 100 µM in each case.

With `COc1ccc(CCNCCCC2c3ccccc3-c3ccccc32)cc1OC`, the TGI in test [10] amounted to 33.4 µM; in test [11] it was 30.5 µM; in [1], 20.3 µM; in test [2], 21.2 µM; in test [12], 30.6 µM; in [3], 12.4 µM. The TGI in [4] was 27.5 µM; in [5] it was 24.5 µM; in test [6], 41.8 µM; in [14] it was 29.9 µM; in test [7] it was 32.1 µM; in test [8], 24.2 µM. Moreover, the TGI in [9] turned out to be 28.2 µM.

Consider `CCC1CN2CCC3(c4ccccc4)CC(C(=O)OC)=CC1C23` (stereo not drawn), for which the TGI was 33.1 µM in test [10]; 39 µM in [11]; 35.1 µM in test [12]; 30.3 µM in test [3]; 28.7 µM in test [4]; 31.1 µM in test [5]. For the same compound, the TGI was 33.7 µM in test [6]; 28.5 µM in [13]; 44 µM in test [7]; above 100 µM in test [8]; 18.2 µM in [9].

Consider `COC(=O)c1ccc(NCc2cc(O)ccc2O)cc1`, for which the TGI was 37.4 µM in test [10]; 40.8 µM in test [11]; 8.04 µM in test [1]; above 54.8 µM in [2]; 27.4 µM in test [12]; above 72.7 µM in test [3]. Further, the TGI in [4] was 17.9 µM; in test [5], 33.7 µM; in [6], 40.1 µM; in test [14] it was 19.7 µM; in test [7], 52.1 µM; in test [8] it was above 32.4 µM. In test [9], this compound registered a TGI of 9.63 µM.

As to `CC(=O)O[C@@H](C1C[C@@H](C)[C@H]2[C@@](O)(O1)[C@H](O)[C@@]1(C)C3=CC[C@H]4C(C)(C)[C@@H](OC5OCC(O)C(O)C5O)CC[C@@]45C[C@@]35CC[C@]21C)C(C)(C)O` (stereo partly drawn), the TGI in [10] is above 100 µM; in test [6], above 100 µM; in [14], 50.7 µM; in test [8], 49.8 µM.

On to `Cc1cc(Cl)ccc1C1OC(=O)c2c1ccc1ccccc21` (stereo not drawn), for which the TGI in test [10], in test [11], in test [2], in test [3], in test [4] and in test [5] was above 100 µM throughout. Moreover, the TGI in [6] and in [9] was above 100 µM each time.

With `CN(C)CC1CN=C(NC(=O)Nc2ccccc2)O1` (stereo not drawn), the TGI in test [10], in [6], in test [14] and in test [8] was above 100 µM each time.

For `CCOP(=O)(OCC)/C(C#N)=C/c1ccnc2ccccc12`, the TGI is 80.3 µM in test [10], 52 µM in test [6], 35.4 µM in test [14] and 73.6 µM in test [8].

For `CC(=O)c1cc(C)n2c1CS[C@@H]2c1ccccc1`, the TGI in [10], in [6], in [14] and in test [8] was above 100 µM in each case.

On to `CC(C)C(NC(=O)C(Cc1ccccc1)NC(=O)[C@H]1CCC[C@H]1NC(=O)C(N)Cc1ccc(O)cc1)C(N)=O` (stereo partly drawn), for which the TGI in test [10], in test [6], in test [14] and in test [8] was above 100 µM in each case.

In the case of `NC(=O)c1cccc([C@@H]2O[C@H](CO)[C@@H](O)[C@H]2O)c1`, the TGI in test [10] was above 69.1 µM; in test [11], 35.9 µM; in test [1], 32.7 µM; in test [2], 22.9 µM; in test [12], 68.6 µM; in test [3] it was above 94.1 µM. The TGI was 60.7 µM in test [5]; 9.55 µM in test [6]; above 100 µM in test [14]; 43.2 µM in test [13]; 24.4 µM in [7]; above 82.2 µM in [8]. In test [9], this compound displayed a TGI of 7 µM.

As to `CCOC(=O)c1c(N2CCCC2)[nH]c(=O)c(C(c2cccs2)c2c(O)c(C(=O)OCC)c(N3CCCC3)[nH]c2=O)c1O`, the TGI in test [10], in test [6], in test [14] and in test [8] was above 100 µM each time.

On to `O=C1Oc2cc3c(c4cccc1c24)O[C@H](c1ccccc1)[C@@H](c1ccccc1)[C@@H]3c1ccc(Cl)cc1`, for which the TGI in test [10] is above 100 µM; in test [6], 95.8 µM; in [14], above 100 µM; in test [8], 87.2 µM.

Regarding `COc1ccc(CCNC(=O)[C@H]2CCCC[C@@H]2CCO)cc1OC`, the TGI in [10], in test [6], in [14] and in test [8] was above 100 µM each time.

Regarding `Cc1ncc([N+](=O)[O-])n1CCNC(=O)Cn1c([N+](=O)[O-])cnc1C`, the TGI in test [10], in test [6], in [14] and in test [8] was above 100 µM throughout.

In the case of `CCOC(OC1=C(C#N)CCCC1)C(C)[Se]c1ccccc1` (stereo not drawn), the TGI in test [10] is above 100 µM; in test [11] it was above 100 µM; in test [1] it was 15.4 µM; in test [2], 33.7 µM; in test [12] it was above 100 µM; in test [3] it was above 100 µM. Besides, the TGI is above 100 µM in test [4]; 96.5 µM in [5]; 63.9 µM in test [6]; above 100 µM in [7]; 63.8 µM in test [8]; 57 µM in [9].

Regarding `CCCCNC(=S)/N=C/c1c(O)c2ccccc2[nH]c1=O`, the TGI in test [10], in test [6], in test [14] and in [8] was above 10 µM throughout.

As for `C=C(C)C12CC3CC/C(=N/O)C(C1)C3(N1CCOCC1)C/C2=N/O` (stereo not drawn), the TGI in test [10], in test [6], in test [14] and in test [8] was above 100 µM in each case.

In the case of `O=c1[nH]n(Cc2ccccc2Cl)c2ccccc12`, the TGI in [10], in test [6], in [14] and in [8] was above 100 µM throughout.

With `CCOP(=O)(OCC)/C(C#N)=C/c1c[nH]c2ccccc12`, the TGI in test [10], in test [6], in [14] and in test [8] was above 100 µM each time.

On to `COc1cc(C(=O)Oc2c(C#N)sc3c2c(=O)n(-c2ccccc2)c(=S)n3-c2ccccc2)cc(OC)c1OC`, for which the TGI was 84.3 µM in test [10], 59.2 µM in test [6], above 100 µM in test [14] and above 100 µM in test [8].

Consider `O=C(/C=C(\O)c1ccccc1)c1cc(-c2ccccc2)n(-c2ccccc2)n1`, for which the TGI in test [10] is 54.5 µM; in test [6] it was 15.3 µM; in test [14], above 100 µM; in [8] it was 5.2 µM.

With `COCCOC(=O)C(C)=[N+]=[N-]`, the TGI in [10], in [6], in [14] and in test [8] was above 100 µM throughout.

Take `O=C(CC1C(=O)c2ccccc2C1=C1C(=O)c2ccccc2C1=O)c1ccccc1` (stereo not drawn): the TGI in [10], in test [11], in test [1], in test [2], in [12] and in [3] was above 100 µM each time. Also, the TGI in test [4], in test [5], in [6], in test [7] and in test [9] was above 100 µM each time.

With `COc1ccc(C(=O)Nc2ccc3oc(-c4ccccc4)nc3c2)cc1`, the TGI in test [10] is above 100 µM; in [6], 88.5 µM; in test [14], above 100 µM; in [8], above 100 µM.

Consider `CC(CCCOC(c1ccccc1)(c1ccccc1)c1ccccc1)OC(=O)Nc1ccccc1` (stereo not drawn), for which the TGI in [10] came to 26.8 µM; in test [11], 27.1 µM; in test [1] it was 24.5 µM; in [2] it was 29.3 µM; in test [3], 19.8 µM; in [4], 26 µM. In addition, the TGI in test [5] was found to be 28.3 µM; in test [6], 27.1 µM; in [7] it was 31.9 µM; in test [8], 44.7 µM; in test [9], 28.1 µM.

In the case of `COP(=O)(OC)/C(=C\c1cn(C(c2ccccc2)(c2ccccc2)c2ccccc2)cn1)NC(C)=O`, the TGI in [10], in [6], in [14] and in test [8] was above 100 µM throughout.

As to `CC#CC(O)(C(=O)OC1CC2CCC(C1)N2C)C1CCCC1` (stereo not drawn), the TGI in [10], in [6], in test [14] and in [8] was above 100 µM throughout.

With `CC1OC(OC2C(Oc3cc(O)c4c(c3)O[C@H](c3ccc(O)cc3)CC4=O)OC(CO)C(O)C2O)C(O)C(O)C1O` (stereo partly drawn), the TGI in test [10], in [6], in test [14] and in [8] was above 100 µM throughout.

Regarding `O=C(NNC(=O)c1ccccc1O)c1ccc(O)cc1`, the TGI in test [10], in test [6], in test [14] and in [8] was above 100 µM in each case.

On to `CC[C@@H]1/C=C/C=C/C[C@H](C)[C@@H](O)[C@](C)(O)C(=O)[C@H](C)[C@@H](O)[C@H](C)C(=O)[C@H](C)[C@@H](O)[C@H](C)/C=C/C(=O)O[C@H]2[C@@H](C)[C@@H](CC1)O[C@@]1(CC[C@@H](C)[C@@H](CC(C)O)O1)[C@@H]2C` (stereo partly drawn), for which the TGI in [10] stood at 12.7 µM; in test [6] it was 8.85 µM; in test [14], 5.05 µM; in test [8], 13 µM.

`O=c1[nH]c2c(c(=O)[nH]1)SSC2`: the TGI in [10] was 44.5 µM; in test [6], 10.2 µM; in [14] it was above 71.1 µM; in test [8] it was 2.09 µM.

For the origin of these results see PubChem BioAssay (NCI).
